Measured values from patent US20250381289A1, “EGFR AND C-MET BISPECIFIC BINDING AGENTS, CONJUGATES THEREOF AND METHODS OF USING THE SAME” (GENMAB A/S, priority 2024, published 2025).

System: EGFR and cMET co-expressed tumor cell lines (A431, A549, MDA-MB-468, MKN-45, NCI-H441, NCI-H1975)
Test: Binding activity of parent mAbs by flow cytometry
Conditions: flow cytometry on tumor cell lines, FIGS. 1A-1F, Table 5; compared with zalutumumab (zalu) or cetuximab
Method: EGFR and cMET co-expressed tumor cell lines including A431 (ATCC® CRL-1555), A549 (ATCC® CCL-185, Provided by Procell), MDA-MB-468 (ATCC® HTB-132, Provided by Procell), MKN-45 (CL-0292, Provided by Procell), NCI-H441 (ATCC® HTB-174, Provided by COBIOER), NCI-H1975 (ATCC® CRL-5908, Provided by Procell) were selected for evaluating antibody binding activity by flow cytometry.
A431 was cultured with DMEM medium (Gibco, Cat #C11995500BT) containing 10% FBS. MDA-MB-468, MKN-45, NCI-H441 and NCI-H1975 were cultured with RPMI 1640 medium (Gibco, Cat #11875093) containing 10% FBS. A549 was cultured with F12K medium (Gibco, Cat #21127030) containing 10% FBS. Each antibody was incubated with different cell lines (1×10^5 cells/well) for 30 min in 0.2 mL FACS buffer (1×PBS with 0.1% BSA) at 4° C. After wash, cells were incubated with 100 μL PE-conjugated anti human Fc (Abcam, Ab98596, 1:500 dilution) for 30 min at 4° C. After wash with PBS, cells were resuspended in FACS buffer and analyzed by flow cytometer (Beckman, CytoFLEX).

Row | Substance | binding activity / affinity of parent EGFR mAbs (summary)
1 | Nectitumumab: parent EGFR mAb; sequences in Table 2 as Necitumumab [reference compound] | Stronger affinity than zalu,
2 | Nimotuzumab: parent EGFR mAb; sequences in Table 2 [reference compound] | Lower affinity than zalutumumab, no significant
3 | Panitumumab: parent EGFR mAb; sequences in Table 2 [reference compound] | Stronger affinity than cetuximab, binding remains
